For 21 molecules, EC50 results are on record in patent US11820773B2, “Tricyclic compounds” (ALIGOS THERAPEUTICS, INC., priority 2020, dated 2023).

The subject of the assay is HBV. The assay can be described thus: HBV-DNA antiviral assay using HepG2.117 cells (intracellular HBV DNA by qPCR). The settings on record: HBV DNA inhibition, 3 days incubation, 2% DMSO. The assay is classed as cell-based, genotype D HBV. An outline of the steps:
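Endpoints are intracellular HBV DNA by qPCR (interpolated from a gBlock standard curve) and ATP-based viability in duplicate plates. Doxycycline-free HepG2.117 Tet-off cells received compounds (9 concentrations, 4-fold steps, 2% DMSO) for 3 days. Inhibition normalised to DMSO wells; EC50/EC90/CC50 by curve fitting.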
In general terms: Quantitative PCR measures a nucleic acid by following its amplification.

One may read the EC50 as the concentration needed to bring the measured effect to its halfway point. A higher EC50 goes with a less potent agent. With `Cc1ccn(-c2ccc(-n3c(=O)c4c(n5ncc(CC(C)C)c35)CN(C(=O)c3ccc(Br)c(C(F)(F)F)c3)[C@H](C)C4)cc2)n1` (stereo in doubt) [Compound 100a, rac-(11R)-12-[4-bromo-3-(trifluoromethyl)benzoyl]-5-isobutyl-11-methyl-7-[4-(3-methylpyrazol-1-yl)phenyl]-2,3,7,12-tetrazatricyclo[7.4.0.0^2,6]trideca-1(9),3,5-trien-8-one], under “Hepatitis B virus, 72 h”, the EC50 is under 0.05 µM.
On to `CNC(=O)c1ccc(-n2c(=O)c3c(n4ncc(Cc5ccccc5)c24)CN(C(=O)c2ccc(Br)c(C(F)(F)F)c2)CC3)cc1` [Compound 4, 4-[5-benzyl-12-[4-bromo-3-(trifluoromethyl)benzoyl]-8-oxo-2,3,7,12-tetrazacyclo[7.4.0.0^2,6]trideca-1(9),3,5-trien-7-yl]-N-methyl-benzamide], for which the EC50 is under 0.05 µM.
For `CNC(=O)c1ccc(-n2c(=O)c3c(n4ncc(CC5CC5)c24)CN(C(=O)c2ccc(Br)c(Cl)c2)[C@H](C)C3)cc1` (stereo in doubt) [Compound 22a, N-methyl-4-[rac-(11R)-12-[4-bromo-3-chlorobenzoyl]-5-(cyclopropylmethyl)-11-methyl-8-oxo-2,3,7,12-tetrazatricyclo[7.4.0.0^2,6]trideca-1(9),3,5-trien-7-yl]benzamide], the concentration giving a half-maximal response (EC50) (Hepatitis B virus, 72 h) is under 0.05 µM.
In turn, `C[C@@H]1Cc2c(n3ncc(Cc4ccccc4)c3n(-c3ccc(-c4n[nH]c(=O)n4C)cc3)c2=O)CN1C(=O)c1ccc(Br)c(C(F)(F)F)c1` (stereo in doubt) [Compound 58a, rac-(11R)-5-benzyl-12-[4-bromo-3-(trifluoromethyl)benzoyl]-11-methyl-7-[4-(4-methyl-5-oxo-1H-1,2,4-triazol-3-yl)phenyl]-2,3,7,12-tetrazatricyclo[7.4.0.0^2,6]trideca-1(9),3,5-trien-8-one] yielded an EC50 (Hepatitis B virus, 72 h) of under 0.05 µM.
Same read-out and setting: as for `Cc1cnn(-c2ccc(-n3c(=O)c4c(n5ncc(CC(C)C)c35)CN(C(=O)c3ccc(Br)c(C(F)(F)F)c3)[C@@H](C)C4)cc2)n1` (stereo in doubt) [Compound 99b, rac-(11S)-12-[4-bromo-3-(trifluoromethyl)benzoyl]-5-isobutyl-11-methyl-7-[4-(4-methyltriazol-2-yl)phenyl]-2,3,7,12-tetrazatricyclo[7.4.0.0^2,6]trideca-1(9),3,5-trien-8-one], the figure is 0.5 to 5 µM; as for `CNC(=O)c1ccc(-n2c(=O)c3c(n4ncc(Cc5ccccc5)c24)CN(C(=O)c2ccc(Br)c(C(F)(F)F)c2)[C@@H](C)C3)nc1` (stereo in doubt) [Compound 109b, N-methyl-6-[rac-(11S)-5-benzyl-12-[4-bromo-3-(trifluoromethyl)benzoyl]-11-methyl-8-oxo-2,3,7,12-tetrazatricyclo[7.4.0.0^2,6]trideca-1(9),3,5-trien-7-yl]pyridine-3-carboxamide], under 0.05 µM.
Molecule `Cc1nnc(-c2ccc(-n3c(=O)c4c(n5ncc(Cc6ccccc6)c35)CN(C(=O)c3ccc(Br)c(Cl)c3)CC4)cc2)n1C` [Compound 31, 5-benzyl-12-(4-bromo-3-chloro-benzoyl)-7-[4-(4,5-dimethyl-1,2,4-triazol-3-yl)phenyl]-2,3,7,12-tetrazatricyclo[7.4.0.0^2,6]trideca-1(9),3,5-trien-8-one] gave an EC50 (Hepatitis B virus, 72 h) of under 0.05 µM.
As to `CNC(=O)c1cc(-n2c(=O)c3c(n4ncc(CC(C)C)c24)CN(C(=O)c2ccc(Br)c(C(F)(F)F)c2)[C@@H](C)C3)nn1C` (stereo in doubt) [Compound 77b, N,2-dimethyl-5-[rac-(11S)-12-[4-bromo-3-(trifluoromethyl)benzoyl]-5-isobutyl-11-methyl-8-oxo-2,3,7,12-tetrazatricyclo[7.4.0.0^2,6]trideca-1(9),3,5-trien-7-yl]pyrazole-3-carboxamide], the EC50 (Hepatitis B virus, 72 h) was under 0.05 µM.
For the molecule `C[C@H]1Cc2c(n3ncc(Cc4ccccc4)c3n(-c3ccc(-c4nnn[nH]4)cc3)c2=O)CN1C(=O)c1ccc(Br)c(C(F)(F)F)c1` (stereo in doubt) [Compound 71b, rac-(11S)-5-benzyl-12-[4-bromo-3-(trifluoromethyl)benzoyl]-11-methyl-7-[4-(1H-tetrazol-5-yl)phenyl]-2,3,7,12-tetrazatricyclo[7.4.0.0^2,6]trideca-1(9),3,5-trien-8-one], the concentration for a half-maximal effect (EC50) (Hepatitis B virus, 72 h) is over 5 µM.
As for `Cc1nnc(-c2ccc(-n3c(=O)c4c(n5ncc(Cc6ccccc6)c35)CN(C(=O)c3ccc(Cl)c(C(F)(F)F)c3)[C@@H](C)C4)cc2)[nH]1` (stereo in doubt) [Compound 52b, rac-(11S)-5-benzyl-12-[4-chloro-3-(trifluoromethyl)benzoyl]-11-methyl-7-[4-(5-methyl-4H-1,2,4-triazol-3-yl)phenyl]-2,3,7,12-tetrazatricyclo[7.4.0.0^2,6]trideca-1(9),3,5-trien-8-one], for the setting “Hepatitis B virus, 72 h”, the half-maximal effective concentration (EC50) was 0.05 to 0.5 µM.
Consider `Cc1nnc(-c2ccc(-n3c(=O)c4c(n5ncc(CC(C)C)c35)CN(C(=O)c3ccc(Br)c(C(F)(F)F)c3)[C@@H](C)C4)cc2)[nH]1` (stereo in doubt) [Compound 59b, rac-(11S)-12-[4-bromo-3-(trifluoromethyl)benzoyl]-5-isobutyl-11-methyl-7-[4-(5-methyl-4H-1,2,4-triazol-3-yl)phenyl]-2,3,7,12-tetrazatricyclo[7.4.0.0^2,6]trideca-1(9),3,5-trien-8-one], for which, for the setting “Hepatitis B virus, 72 h”, the EC50 was 0.05 to 0.5 µM.
As to `CNC(=O)c1cnc(-n2c(=O)c3c(n4ncc(Cc5ccccc5)c24)CN(C(=O)c2ccc(Br)c(C(F)(F)F)c2)[C@H](C)C3)nc1` (stereo in doubt) [Compound 69a, N-methyl-2-[rac-(11R)-5-benzyl-12-[4-bromo-3-(trifluoromethyl)benzoyl]-11-methyl-8-oxo-2,3,7,12-tetrazatricyclo[7.4.0.0^2,6]trideca-1(9),3,5-trien-7-yl]pyrimidine-5-carboxamide], the EC50 (Hepatitis B virus, 72 h) is under 0.05 µM.
Turning to `CNC(=O)c1ccc(-n2c(=O)c3c(n4ncc(Cc5ccccc5)c24)CN(C(=O)c2ccc(Br)c(C(F)(F)F)c2)[C@@H](C2CC2)C3)cc1` (stereo in doubt) [Compound 104a, N-methyl-4-[rac-(11R)-5-benzyl-12-[4-bromo-3-(trifluoromethyl)benzoyl]-11-cyclopropyl-8-oxo-2,3,7,12-tetrazatricyclo[7.4.0.0^2,6]trideca-1(9),3,5-trien-7-yl]benzamide], the EC50 (Hepatitis B virus, 72 h) is under 0.05 µM.
The same measure, in the same setting: as for `CNC(=O)c1cnc(-n2c(=O)c3c(n4ncc(CC(C)C)c24)CN(C(=O)c2ccc(Br)c(C(F)(F)F)c2)[C@H](C)C3)nc1` (stereo in doubt) [Compound 85a, N-methyl-2-[rac-(11R)-12-[4-bromo-3-(trifluoromethyl)benzoyl]-5-isobutyl-11-methyl-8-oxo-2,3,7,12-tetrazatricyclo[7.4.0.0^2,6]trideca-1(9),3,5-trien-7-yl]pyrimidine-5-carboxamide], the figure is under 0.05 µM; as for `CNC(=O)c1ccc(-n2c(=O)c3c(n4ncc(CC5CC5)c24)CN(C(=O)c2ccc(Br)c(C(F)(F)F)c2)CC3)cc1` [Compound 24, 4-[12-[4-bromo-3-(trifluoromethyl)benzoyl]-5-(cyclopropylmethyl)-8-oxo-2,3,7,12-tetrazatricyclo[7.4.0.0^2,6]trideca-1(9),3,5-trien-7-yl]-N-methyl-benzamide], under 0.05 µM.
Same read-out and setting: next, `Cc1cnn(-c2ccc(-n3c(=O)c4c(n5ncc(CC(C)C)c35)CN(C(=O)c3ccc(Br)c(C(F)(F)F)c3)[C@H](C)C4)cc2)n1` (stereo in doubt) [Compound 99a, rac-(11R)-12-[4-bromo-3-(trifluoromethyl)benzoyl]-5-isobutyl-11-methyl-7-[4-(4-methyltriazol-2-yl)phenyl]-2,3,7,12-tetrazatricyclo[7.4.0.0^2,6]trideca-1(9),3,5-trien-8-one]: under 0.05 µM; `CNC(=O)c1ccc(-n2c(=O)c3c(n4ncc(CC5CCC5)c24)CN(C(=O)c2ccc(Br)c(C(F)(F)F)c2)[C@@H](C)C3)cc1` (stereo in doubt) [Compound 37b, N-methyl-4-[rac-(11S)-12-[4-bromo-3-(trifluoromethyl)benzoyl]-5-(cyclobutylmethyl)-11-methyl-8-oxo-2,3,7,12-tetrazatricyclo[7.4.0.0^2,6]trideca-1(9),3,5-trien-7-yl]benzamide]: 0.05 to 0.5 µM.
On the same count and under the same terms, next, `C[C@H]1Cc2c(n3ncc(Cc4ccccc4)c3n(-c3ccc(-c4cnnn4C)cc3)c2=O)CN1C(=O)c1ccc(Br)c(C(F)(F)F)c1` (stereo in doubt) [Compound 105b, rac-(11S)-5-benzyl-12-[4-bromo-3-(trifluoromethyl)benzoyl]-11-methyl-7-[4-(3-methyltriazol-4-yl)phenyl]-2,3,7,12-tetrazatricyclo[7.4.0.0^2,6]trideca-1(9),3,5-trien-8-one]: 0.05 to 0.5 µM; `C[C@H]1Cc2c(n3ncc(Cc4ccccc4)c3n(-c3ccc(-c4ncnn4C)cc3)c2=O)CN1C(=O)c1ccc(Br)c(C(F)(F)F)c1` (stereo in doubt) [Compound 49b, rac-(11S)-5-benzyl-12-[4-bromo-3-(trifluoromethyl)benzoyl]-11-methyl-7-[4-(2-methyl-1,2,4-triazol-3-yl)phenyl]-2,3,7,12-tetrazatricyclo[7.4.0.0^2,6]trideca-1(9),3,5-trien-8-one]: 0.05 to 0.5 µM.
Molecule `CNC(=O)c1ccc(-n2c(=O)c3c(n4ncc(Cc5ccccc5)c24)CN(C(=O)c2ccc(Br)c(C(F)(F)F)c2)[C@H](C)C3)nc1` (stereo in doubt) [Compound 109a, N-methyl-6-[rac-(11R)-5-benzyl-12-[4-bromo-3-(trifluoromethyl)benzoyl]-11-methyl-8-oxo-2,3,7,12-tetrazatricyclo[7.4.0.0^2,6]trideca-1(9),3,5-trien-7-yl]pyridine-3-carboxamide] displayed an EC50 (Hepatitis B virus, 72 h) of 0.05 to 0.5 µM.
Same read-out and setting: as for `CNc1nnc2cc(-n3c(=O)c4c(n5ncc(Cc6ccccc6)c35)CN(C(=O)c3ccc(Br)c(Cl)c3)CC4)ccn12` [Compound 23, 5-benzyl-12-(4-bromo-3-chloro-benzoyl)-7-[3-(methylamino)-[1,2,4]triazolo[4,3-a]pyridin-7-yl]-2,3,7,12-tetrazatricyclo[7.4.0.0^2,6]trideca-1(9),3,5-trien-8-one], the figure is under 0.05 µM.
